Data set [1] has as its system Staphylococcus aureus ATCC 29213. As to the kind of experiment: MBC, agar aliquot subculture method. It counts as cell-based. Conditions: ATCC29213, SA = S. aureus ATCC 29213, read-out: MBC. Here is the method: (§1) All the investigated compounds were screened for in vitro antibacterial activity against the reference and quality control strain Staphylococcus aureus ATCC 29213 and clinical isolates of methicillin-resistant S. aureus (MRSA) 63718, SA 630, and SA 3202 [14]. Activities are expressed as the minimum inhibitory concentrations (MICs), see Table 2. In addition to the MICs, the minimum bactericidal concentrations (MBCs) were also determined.
(§2) For the S. aureus and MRSA isolates, the agar aliquot subculture method was used as a test for bactericidal agents. After the MIC value determination, the inoculum was transferred to Mueller–Hinton (Oxoid) agar using a multipoint inoculator. The plates were incubated in a thermostat at 37 °C for 24 h. The lowest concentration of test compound at which ≤5 colonies were obtained was then evaluated as MBC, corresponding to a 99.9% decrease in CFU relative to the original inoculum.

Data set [2] has as its system MRSA 63718. Description: MBC, agar aliquot subculture method. It counts as cell-based. Conditions: Staphylococcus aureus. The protocol: as §1, §2
Data set [3] deals with MRSA SA 630. Description: MBC, agar aliquot subculture method. The data set is classed as cell-based. Conditions: Staphylococcus aureus. Here is the method: as §1, §2
Data set [4] relates to MRSA SA 3202. Description: MBC, agar aliquot subculture method. The data set is classed as cell-based. Conditions: Staphylococcus aureus. Here is the method: as §1, §2
The subject of data set [5] is Enterococcus faecalis ATCC 29212. As to the kind of experiment: MIC, microtitration broth method. It counts as cell-based. Conditions: ATCC29212; EF = Enterococcus faecalis, 24 h; read-out: MIC. The protocol:
(§3) In vitro antibacterial activity of the synthesized compounds was evaluated against representatives of multidrug-resistant bacteria, three clinical isolates of methicillin-resistant S. aureus: clinical isolate of animal origin, MRSA 63718 (Department of Infectious Diseases and Microbiology, Faculty of Veterinary Medicine, University of Veterinary Sciences Brno, Czech Republic), carrying the mecA gene; and MRSA SA 630 [46] and MRSA SA 3202 [46] (National Institute of Public Health, Prague, Czech Republic), both of human origin. Suspected colonies were confirmed by PCR; a 108bp fragment specific for S. aureus was detected. All isolates were tested for the presence of the mecA gene encoding methicillin resistance. […] Vancomycin-susceptible methicillin-susceptible S. aureus (VS-MSSA) ATCC 29213, obtained from the American Type Culture Collection, was used as the reference and quality control strain. Enterococcus faecalis ATCC 29212 was obtained from the American Type Culture Collection and used as the reference and quality control strain.
(§4) The minimum inhibitory concentrations (MICs) were evaluated by the microtitration broth method according to the CLSI [64, 65] with some modifications. The compounds were dissolved in DMSO (Sigma, St. Louis, MO, USA) to get a concentration […] and diluted in a microtitration plate in an appropriate medium, namely, Cation Adjusted Mueller–Hinton (CaMH, Oxoid, Basingstoke, UK) for staphylococci (S. aureus ATCC 29213, clinical isolates of MRSA 63718, SA 630, and SA 3202) and brain heart infusion (BHI, Oxoid) for E. faecalis ATCC 29212, to reach the final concentration of 256-0.125 µg/mL. The plate was inoculated by the tested microorganisms. The final concentration of bacterial cells was 10^5 for bacteria. Ampicillin (Sigma) was used as reference drugs. A drug-free control and a sterility control were included. The plates were incubated for 24 h at 37 °C for staphylococci and E. faecalis ATCC 29212 (stability evaluation of the carbamates, see Supplementary materials, Table S1). […] The experiments were repeated three times.

Data set [6] can be described thus: Lipophilicity determination by RP-HPLC (log k, log D). Conditions: RP-HPLC; for log D6.5: MeOH 72%/acetate buffered saline pH 6.5; for log D7.4: MeOH 72%/acetate buffered saline pH 7.4; for log k: MeOH 72%/water 28%. It counts as physicochemical. Here is the method: Lipophilicity was measured by reversed-phase high performance liquid chromatography (RP-HPLC) under isocratic conditions with methanol as the organic modifier in the aqueous mobile phase and the logarithm of the capacity factor k was calculated, which is used as the lipophilicity index converted to the log P scale. In addition to the log k values, the logarithm of the distribution coefficient DpH at pH 6.5 and 7.4 was determined to clarify the behavior of the compounds under physiological conditions and possible ionization. Instead of water, a buffer of suitable pH was used as part of the mobile phase. In addition to the above-mentioned experimental methods, commercially available ChemBioDraw Ultra 13.0 and ACD/Percepta ver. […] In addition to lipophilicity, other parameters discussed in Ro5, such as molecular weight, number of H-bond donors/acceptors, as well as parameters not reported in Ro5, but characterizing the physicochemical properties of the prepared molecules, such as number of rotatable bonds, were predicted using ACD/Percepta. Moreover, for each R substituent, bulkiness expressed as molar volume (MV [cm^3]), a parameter describing the tail length/branching of each carbamates, was calculated.
A HPLC separation module Agilent 1200 Series (Agilent Technologies, Santa Clara, CA, USA) equipped with a Dual Absorbance Detector (DAD SL G1315C, Agilent Technologies) was used. A chromatographic column Symmetry® C18 5 μm, 4.6 × 250 mm, Part No. W21751W016 (Waters Corp, Milford, MA, USA) was used. The HPLC separation process was monitored by ChemStation for LC 3D systems (Agilent Technologies). […] The total flow of the column was 1.0 mL/min, injection 20 μL, column temperature 40 °C, and sample temperature 10 °C. The detection wavelength of 210 nm was chosen. A KI methanolic solution was used for the determination of the dead times (tD). Retention times (tR) were measured in minutes. The capacity factors k were calculated according to the formula k = (tR − tD)/tD, where tR is the retention time of the solute, and tD is the dead time obtained using an unretained analyte. The distribution coefficients DpH were calculated according to the formula DpH = (tR − tD)/tD. Each experiment was repeated three times.

Data set [7] deals with Staphylococcus aureus ATCC 29213. Description: MIC, microtitration broth method. The data set is classed as cell-based. Conditions: ATCC29213, SA = S. aureus ATCC 29213, 24 h, read-out: MIC. Here is the method:
as §1, §3, §4

Data set [8] relates to MRSA 63718. Description: MIC, microtitration broth method. Conditions: Staphylococcus aureus. It counts as cell-based. The protocol: as §1, §3, §4
The subject of data set [9] is MRSA SA 630. Description: MIC, microtitration broth method. It counts as cell-based. Conditions: Staphylococcus aureus. Here is the method:
as §1, §3, §4

For data set [10], the system named is MRSA SA 3202. As to the kind of experiment: MIC, microtitration broth method. Conditions: Staphylococcus aureus. It counts as cell-based. The protocol: as §1, §3, §4
In another data set the test system is THP-1 cells. As to the kind of experiment: In vitro cytotoxicity assay (WST-1). It counts as cell-based. Conditions: Homo sapiens; THP-1, 24 h, ± SD, n = 6; read-out: IC50. Here is the method: Preliminary in vitro cytotoxicity screening of the investigated compounds was performed using human monocytic leukemia THP-1 cells, see Table 2. The ability to inhibit the human cancer cell viability (IC50) of the compounds was compared to camptothecin toxicity (0.16 ± 0.07 μM). […] However, these values are up to two orders of magnitude higher than their significant antistaphyloccocal concentrations. This fact is also taken into account in the calculated selectivity index (SI), Table 2, where for only three compounds the SI is <20, while for the rest of the agents SI is >20, and for some derivatives even 100 and more. Thus, based on all these observations, it can be concluded that all the tested derivatives can be considered as in vitro non-toxic compounds for the subsequent design of new therapeutic agents.
The human THP-1 cell line (European Collection of Cell Cultures, Salisbury, UK) was cultured in RPMI 1640 medium supplemented with 10% fetal bovine serum, 2% L-glutamine, 1% penicillin, and streptomycin at 37 °C with 5% CO2. Cells were passaged at approximately 1-week intervals. All the tested compounds were prepared and dissolved as mentioned in our previous work.

≈ marks a conversion by molar mass, not a printed value. Read-outs that look alike come from different tables or passages of the source.

For `O=C(NCCc1ccccc1)Oc1c(C(=O)Nc2cc(Cl)c(Cl)cc2Cl)ccc2ccccc12` [Compound 13, 2-[N-(2,4,5-Trichlorophenyl)carbamoyl]naphthalen-1-yl 2-phenylethyl carbamate], the MBC in [1] turned out to be 0.062 µM (≈ 0.0319 µg/mL); against MRSA 63718 [2] (MRSA), 0.123 µM (≈ 0.0632 µg/mL); in the data set with MRSA SA 630 [3], 0.973 µM (≈ 0.5 µg/mL); against MRSA SA 3202 [4], 0.243 µM (≈ 0.125 µg/mL). For the same compound, the MIC stood at 125 µM (≈ 64.2 µg/mL) in [5]; 0.062 µM (≈ 0.0319 µg/mL) in data set [7]; 0.123 µM (≈ 0.0632 µg/mL) against MRSA 63718 [8] (MRSA, 24 h); 0.062 µM (≈ 0.0319 µg/mL) against MRSA SA 630 [9] (24 h); 0.123 µM (≈ 0.0632 µg/mL) in the data set with MRSA SA 3202 [10] (24 h). Also, the “log D6.5” value in [6] came out at 1.2473. Also, in data set [6], the “log D7.4” value came to 1.2470. This compound returned a log k in data set [6] of 1.2450. Moreover, the IC50 in the data set with THP-1 cells is 2790 ± 280 nM.
For `CCCNC(=O)Oc1c(C(=O)Nc2cc(Cl)c(Cl)cc2Cl)ccc2ccccc12` [Compound 3, 2-[N-(2,4,5-Trichlorophenyl)carbamoyl]naphthalen-1-yl propyl carbamate], the MBC in data set [1] was determined as 0.035 µM (≈ 0.0158 µg/mL); in the data set with MRSA 63718 [2] (MRSA), 0.277 µM (≈ 0.125 µg/mL); against MRSA SA 630 [3], 0.553 µM (≈ 0.25 µg/mL); against MRSA SA 3202 [4] it was 0.071 µM (≈ 0.0321 µg/mL). The MIC in data set [5] was 283 µM (≈ 128 µg/mL); in data set [7], 0.035 µM (≈ 0.0158 µg/mL); against MRSA 63718 [8] (MRSA, 24 h), 0.139 µM (≈ 0.0628 µg/mL); with MRSA SA 630 [9] (24 h), 0.553 µM (≈ 0.25 µg/mL); with MRSA SA 3202 [10] (24 h), 0.071 µM (≈ 0.0321 µg/mL). The “log D6.5” value in [6] is given as 0.9734. Also, the “log D7.4” value in data set [6] is listed as 0.9793. Further, in data set [6], the log k is on record as 0.9689. The IC50 in the data set on THP-1 cells was 3120 ± 70 nM.
With `CC1(C)S[C@@H]2[C@H](NC(=O)[C@H](N)c3ccccc3)C(=O)N2[C@H]1C(=O)O` [APM, ampicillin, reference compound], the MBC in data set [1] was more than 5.72 µM; in the data set with MRSA 63718 [2] (MRSA1 = MRSA 63718, read-out: MBC) it was more than 45.8 µM; with MRSA SA 630 [3] (MRSA2 = SA 630, read-out: MBC), more than 45.8 µM; in the data set on MRSA SA 3202 [4] (MRSA3 = SA 3202, read-out: MBC), more than 45.8 µM. Further, the MIC amounted to 5.72 µM (≈ 2 µg/mL) in data set [7]; 45.8 µM (≈ 16 µg/mL) in the data set with MRSA 63718 [8] (MRSA1 = MRSA 63718, 24 h, read-out: MIC); 45.8 µM (≈ 16 µg/mL) with MRSA SA 630 [9] (MRSA2 = SA 630, 24 h, read-out: MIC); 45.8 µM (≈ 16 µg/mL) in the data set with MRSA SA 3202 [10] (MRSA3 = SA 3202, 24 h, read-out: MIC).
Consider `CC[C@@]1(O)C(=O)OCc2c1cc1n(c2=O)Cc2cc3ccccc3nc2-1` [CMT, camptothecin, reference compound], for which the IC50 in the data set with THP-1 cells turned out to be 160 ± 70 nM.
